{"source": "patent US20120238915A1", "about": "“SOUND WAVE TREATMENT PLATFORM AND SOUND WAVE TREATMENT METHOD” (priority 2011, published 2012)", "key": {"[1]": {"system": "metastatic pancreatic cancer to liver", "test": "Example 3: patient treated with non-focused sound waves with Bleomycin", "details": "30 mg Bleomycin + sound waves 0.3 MHz"}, "[2]": {"system": "metastatic breast cancer", "test": "Example 6: patient treated with non-focused sound waves with Bleomycin", "assay_type": "in vivo, human", "details": "30 mg Bleomycin + sound waves 0.3 MHz", "description": "person two was diagnosed with metastatic breast cancer, and complained of three weeks left shoulder pain.\n(§1) The patient was treated according to the present invention with 30 mg Bleomycin (Frequency: 0.3 MHz; power intensity: less than 2 W/cm^2; duration: less than 30 minutes)."}, "[3]": {"system": "recurrent breast cancer and metastasis to the liver", "test": "Example 9: patient treated with non-focused sound waves with Bleomycin", "assay_type": "in vivo, human", "description": "person two was diagnosed with recurrent breast cancer and metastasis to the liver. They had multiple chemotherapy and target medicine treatment.\nThe patient was treated twice (one week apart) according to the present invention with 30 mg Bleomycin each time (Frequency: 0.3 MHz; power intensity: less than 2 W/cm^2; duration: less than 30 minutes (each time)). […] Their right upper quadrant pain resolved and remained pain free over 18 months till last follow up."}, "[4]": {"system": "recurrent pancreatic cancer", "details": "human, in vivo"}, "[5]": {"system": "non-operable pancreatic cancer"}, "[6]": {"system": "metastatic pancreatic cancer to liver", "test": "Example 1: patient treated with non-focused sound waves with Bleomycin", "assay_type": "in vivo, human", "details": "30 mg Bleomycin + sound waves 0.3 MHz", "description": "person one was diagnosed with metastatic pancreatic cancer to liver. Treatment history was as follows: Gemcitabine, Tykerb, Xeloda, and 6000R radiation therapy. Despite multiple treatments, patient's condition continues to worsen with increased abdominal pain. The patient was taking pain medication with constipation.\nThe patient was treated according to the present invention with 30 mg Bleomycin (Frequency: 0.3 MHz; power intensity: less than 2 W/cm^2; duration: less than 30 minutes). […] Their tumor marker CA19-9 decreased from 1465 to 406 in 9 days after the treatment. They remained pain free for 150 days after the treatment till their death clue to organ failure."}, "[7]": {"system": "terminal metastatic ovarian cancer", "test": "Example 10: patient treated with non-focused sound waves with Bleomycin", "assay_type": "in vivo, human", "description": "person five was diagnosed with terminal metastatic ovarian cancer with colostomy and complained of abdominal pain.\nThe patient was treated twice (one week apart) according to the present invention combined with 30 mg Bleomycin each time (Frequency: 0.3 MHz; power intensity: less than 2 W/cm^2; duration: less than 30 minutes (each time)). […] They remained pain free for over 8 months till their death due to sepsis."}, "[8]": {"system": "terminal hepatoma", "test": "Example 8: patient treated with non-focused sound waves with Bleomycin", "assay_type": "in vivo, human", "details": "30 mg Bleomycin + sound waves 0.3 MHz", "description": "person four was diagnosed with terminal hepatoma and liver pain.\nas §1"}, "[9]": {"system": "metastatic pancreatic cancer to liver", "test": "Example 4: patient treated with non-focused sound waves with Bleomycin", "assay_type": "in vivo, human", "details": "30 mg Bleomycin + sound waves 0.3 MHz", "description": "person three was diagnosed with metastatic pancreatic cancer to liver and has been treated with Palliative bypass operation. No chemotherapy history. They were in very terminal stage with severe jaundice and great pain. They used Fetanyl patch and additional pain medication. The patient was treated according to the present invention with 30 mg Bleomycin (Frequency: 0.3 MHz; power intensity: less than 2 W/cm^2; duration: less than 30 minutes). […] They remained pain free for 4 days till their death due to hepatic failure."}, "[10]": {"system": "metastatic oral cancer to the face", "test": "Example 7: patient treated with non-focused sound waves with Bleomycin", "assay_type": "in vivo, human", "details": "30 mg Bleomycin + sound waves 0.3 MHz", "description": "person six was diagnosed with metastatic oral cancer to the face, and complained of severe facial pain. They have been treated with multiple surgery and chemoradiation. They presented with a large area of metastatic facial mass, and their right eye was bulging due to tumor infiltration.\nas §1"}, "[11]": {"details": "person two, 30 mg Bleomycin + sound waves 0.3 MHz"}}}
{"molecule": "Bleomycin", "values": [{"measurement": "pain free", "setting": "[1]", "result": 32, "unit": "days"}, {"measurement": "side effect", "setting": "[1]; person seven", "result": "no side effect was observed"}, {"measurement": "patient's pain", "setting": "[1]; person seven, one treatment, <2 W/cm^2, <30 min", "result": "totally dissolved"}, {"measurement": "pain medication use after treatment", "setting": "[1]; until death due to sepsis", "result": "without using any pain medication"}, {"measurement": "pain free duration", "setting": "[2]", "result": "over seven months"}, {"measurement": "side effect", "setting": "[2]; person two, one treatment, <2 W/cm^2, <30 min", "result": "no side effect was observed"}, {"measurement": "shoulder pain", "setting": "[2]; till death due to brain metastasis", "result": "did not have shoulder pain"}, {"measurement": "right upper quadrant pain", "setting": "[3]; 30 mg Bleomycin twice + sound waves 0.3 MHz", "result": "resolved"}, {"measurement": "liver tumor diameter (imaging study), second tumor", "setting": "[3]; decreased from 7 cm, after the first treatment", "result": 4, "unit": "cm"}, {"measurement": "liver tumor diameter (imaging study), first tumor", "setting": "[3]; decreased from 10 cm, after the first treatment", "result": 7, "unit": "cm"}, {"measurement": "side effect", "setting": "[3]; [11]", "result": "no side effect"}, {"measurement": "liver tumors size", "setting": "[3]; person two, after the first of two treatments one week apart, 30 mg Bleomycin each + sound waves 0.3 MHz, <2 W/cm^2, <30 min", "result": "significantly decreased in size"}, {"measurement": "follow up imaging studies", "setting": "[3]; several follow up imaging studies, 30 mg Bleomycin twice + sound waves", "result": "stable liver metastasis"}, {"measurement": "remained pain free", "setting": "[3]; till last follow up, 30 mg Bleomycin twice + sound waves", "result": "over 18 months"}, {"measurement": "body weight", "setting": "[4]", "result": "increased"}, {"measurement": "pain medication use after treatment", "setting": "[4]", "result": "has not taken any pain medication since the first treatment till their death"}, {"measurement": "pain scale", "setting": "[4]", "result": "0-1"}, {"measurement": "physical activity", "setting": "[4]", "result": "returned to near normal"}, {"measurement": "remained pain free after the treatment", "setting": "[4]", "result": 170, "unit": "days"}, {"measurement": "side effect", "setting": "[4]", "result": "no side effect was observed"}, {"measurement": "survival after first diagnosis", "setting": "[4]", "result": "lived two years after their first diagnosis"}, {"measurement": "jaundice", "setting": "[5]; after Bleomycin + sound wave treatments and weekly Gemcitabine", "result": "did not have jaundice"}, {"measurement": "blood sugar", "setting": "[5]; insulin dependent diabetic patient, after the treatment, remained till death", "result": "returned to normal level without using insulin"}, {"measurement": "side effect", "setting": "[5]; [11]", "result": "no side effect was observed"}, {"measurement": "pancreatic region pain", "setting": "[5]; person two, after the first treatment, 30 mg Bleomycin + sound waves 0.3 MHz, <2 W/cm^2, <30 min", "result": "resolved"}, {"measurement": "remained pain free after the treatment", "setting": "[5]; till death, 30 mg Bleomycin three times (third followed by 1000 mg Gemcitabine) + sound waves", "result": 183, "unit": "days"}, {"measurement": "tumor marker CA19-9", "setting": "[6]; decreased from 1465, in 9 days after the treatment", "result": 406}, {"measurement": "constipation symptom", "setting": "[6]; person one, after the treatment", "result": "relieved"}, {"measurement": "pain medication use after treatment", "setting": "[6]; person one, one treatment", "result": "has not taken any pain medication since the treatment"}, {"measurement": "side effect", "setting": "[6]; person one, one treatment", "result": "no side effect was observed"}, {"measurement": "patient's pain", "setting": "[6]; person one, one treatment, <2 W/cm^2, <30 min", "result": "dissolved"}, {"measurement": "remained pain free after the treatment", "setting": "[6]; till death due to organ failure", "result": 150, "unit": "days"}, {"measurement": "side effect", "setting": "[7]; person five, 30 mg Bleomycin + sound waves 0.3 MHz", "result": "no side effect"}, {"measurement": "abdominal pain", "setting": "[7]; person five, after the first of two treatments one week apart, 30 mg Bleomycin each + sound waves 0.3 MHz, <2 W/cm^2, <30 min", "result": "resolved"}, {"measurement": "remained pain free", "setting": "[7]; till death due to sepsis, 30 mg Bleomycin twice + sound waves", "result": "over 8 months"}, {"measurement": "pain free till death", "setting": "[8]", "result": 14, "unit": "days"}, {"measurement": "side effect", "setting": "[8]; person four", "result": "no side effect"}, {"measurement": "right quadrant pain", "setting": "[8]; person four, one treatment, <2 W/cm^2, <30 min", "result": "vanished"}, {"measurement": "pain medication use after treatment", "setting": "[9]", "result": "without using anymore pain medication"}, {"measurement": "side effect", "setting": "[9]; person three", "result": "no side effect was observed"}, {"measurement": "time in which pain vanished", "setting": "[9]; person three, one treatment", "result": 6, "unit": "h"}, {"measurement": "pain", "setting": "[9]; person three, one treatment, <2 W/cm^2, <30 min", "result": "totally vanished"}, {"measurement": "remained pain free", "setting": "[9]; till death due to hepatic failure", "result": 4, "unit": "days"}, {"measurement": "facial tumor size", "setting": "[10]", "result": "decreased in size"}, {"measurement": "right eye (bulging due to tumor infiltration)", "setting": "[10]", "result": "less bulging and could rotate"}, {"measurement": "side effect", "setting": "[10]; person six", "result": "no side effect"}, {"measurement": "facial pain", "setting": "[10]; person six, one treatment, <2 W/cm^2, <30 min", "result": "totally resolved"}, {"measurement": "remained pain free", "setting": "[10]; till last follow up", "result": "over 33 days"}]}
{"molecule": "Nc1ccn([C@@H]2O[C@H](CO)[C@@H](O)C2(F)F)c(=O)n1", "note": "[Gemcitabine]", "values": [{"measurement": "tumor growth in diameter", "setting": "[5]; during at least four months of weekly Gemcitabine, after Bleomycin + sound wave treatments", "result": 1.4, "unit": "cm"}]}
